The target of one assay is T1, EGFR^T790M/L858R (Homo sapiens, UniProt P00533, L858R/T790M).
T1 construct: purchased Millipore
Description: kinase inhibitory activity test (ELISA), EGFR^T790M/L858R. Type of assay: biochemical. Conditions: ELISA, ATP 5 μM, 1 hour at 37° C. On the procedure:
(§1) The enzyme substrate poly (glutamic acid, tyrosine)4:1 (Sigma) was diluted with potassium-free PBS (10 mM sodium phosphate buffer, 150 mM NaCl, pH 7.2-7.4) to 20 μg/mL, plate coated with 125 μL/well, reacted for 12-16 hours at 37° C. After the liquid in the wells was discarded, the plates were washed three times with 200 μL/well of T-PBS (PBS containing 0.1% Tween-20), and each time for 5 minutes, and then dried for 1-2 hours in an oven at 37° C. 50 μL of ATP solution diluted with reaction buffer (50 mM HEPES pH 7.4, 50 mM MgCl2, 5 mM MnCl2, 0.2 mM Na3VO4, 1 mM DTT) was added into each well and the final concentration was 5 μM. The compounds were diluted with 1% DMSO to suitable concentrations and were added at 10 μL/well. […] The above reaction system was reacted for 1 hour at 37° C. shaking table (100 rpm). Control wells with no enzyme and control wells with DMSO solvent were set in each experiment. After the reaction was completed, the plates were washed three times with T-PBS. The anti-phosphotyrosine primary antibody PY99 (Santa Cruz) was added at 100 μL/well and the antibody was diluted with T-PBS containing BSA 5 mg/mL by 1:1000. The mixture was reacted for 0.5 h at 37° C. shaking table, the plates were washed three times with T-PBS. The secondary antibody which was horseradish peroxidase-labeled goat anti-mouse IgG was added at 100 μL/well (the antibody was diluted with T-PBS containing BSA 5 mg/mL by 1:2000). The mixture was reacted for 0.5 h at 37° C. shaking table, the plates were washed three times with T-PBS. 2 l/mL of OPD coloring solution was added at 100 μL/well (diluted with 0.1 M citric acid-sodium citrate buffer (pH=5.4) containing 0.03% H2O2) and dark reacted for 1 to 10 minutes at 25° C. 2 M H2SO4 was added at 50 μL/well to terminate the reaction. Reading was carried out with an adjustable wavelength microplate enzyme-labeled instrument SPECTRA MAX 190 at 490 nm wavelength.
(§2) The IC50 value was calculated by the four-parameter fitting of the suppression curve.
In general terms: In an ELISA, binding on a coated surface is turned into a signal by an enzyme label.

For assay [1], the system named is human non-small cell lung cancer NCI-H1975 cell line. Description: SRB proliferation assay, NCI-H1975 cells. Type of assay: cell-based. The note with it: NCI-H1975, SRB, 72 h, read-out: IC50 NCI-H1975. On the procedure:
(§3) Cell lines: human epidermal carcinoma A431 cell line and human non-small cell lung cancer NCI-H1975 cell line was purchased from the American Standard Biology Collection Center (ATCC).
Methods: sulforhodamine B (SRB) method, which was as follows: certain number of different tumor cells in logarithmic growth phase were inoculated on 96-well culture plates. After cultured for 24 h to cell adherence, different concentrations of the test compounds of the invention were added. Each concentration was provided with three wells, and a corresponding concentration of DMSO solvent control and a cell-free zeroing well were set. After the cells were treated with the medicine for 72 h, the culture medium was discarded and 100 μL of 10% pre-cooled trichloroacetic acid solution was added to fix the cells. After placed for 1 h at 4° C., it was washed for 5 times with distilled water and dried naturally. Then 100 μL SRB (4 mg/mL) (Sigma) solution was added and stained for 15 min at room temperature. The staining solution was discarded and washed for 5 times with 1% glacial acetic acid and dried. Finally, 150 μL of 10 mM Tris solution (pH 10.5) was added and the OD value was measured at 515 nm with adjustable wavelength microplate enzyme-labeled instrument (VERSAmax™, Molecular Device Corporation, Sunnyvale, Calif., USA). […] Based on the inhibitory effect of the 2-aminopyrimidine compounds on the growth of these cells, the half maximal inhibitory concentration (IC50) values were calculated, as shown in Table 2.
On the technique in general: The SRB assay estimates cell density from bound dye.

A further assay has as its target T2, IGF-1R (Homo sapiens, UniProt P08069).
T2 construct: purchased Millipore
Description: kinase inhibitory activity test (ELISA), IGF-1R. Type of assay: biochemical. Conditions: ATP 5 μM, 1 hour at 37° C. On the procedure: The enzyme substrate poly (glutamic acid, tyrosine)4:1 (Sigma) was diluted with potassium-free PBS (10 mM sodium phosphate buffer, 150 mM NaCl, pH 7.2-7.4) to 20 μg/mL, plate coated with 125 μL/well, reacted for 12-16 hours at 37° C. After the liquid in the wells was discarded, the plates were washed three times with 200 μL/well of T-PBS (PBS containing 0.1% Tween-20), and each time for 5 minutes, and then dried for 1-2 hours in an oven at 37° C. 50 μL of ATP solution diluted with reaction buffer (50 mM HEPES pH 7.4, 50 mM MgCl2, 5 mM MnCl2, 0.2 mM Na3VO4, 1 mM DTT) was added into each well and the final concentration was 5 μM. The compounds were diluted with 1% DMSO to suitable concentrations and were added at 10 μL/well. Then different types of tyrosine kinase proteins (including EGFR^wt, EGFR^T790M/L858R and IGF-1R, purchased from Millipore) diluted with 40 μL of reaction buffer were added. The above reaction system was reacted for 1 hour at 37° C. shaking table (100 rpm). Control wells with no enzyme and control wells with DMSO solvent were set in each experiment. After the reaction was completed, the plates were washed three times with T-PBS. The anti-phosphotyrosine primary antibody PY99 (Santa Cruz) was added at 100 μL/well and the antibody was diluted with T-PBS containing BSA 5 mg/mL by 1:1000. The mixture was reacted for 0.5 h at 37° C. shaking table, the plates were washed three times with T-PBS. The secondary antibody which was horseradish peroxidase-labeled goat anti-mouse IgG was added at 100 μL/well (the antibody was diluted with T-PBS containing BSA 5 mg/mL by 1:2000). The mixture was reacted for 0.5 h at 37° C. shaking table, the plates were washed three times with T-PBS. 2 l/mL of OPD coloring solution was added at 100 μL/well (diluted with 0.1 M citric acid-sodium citrate buffer (pH=5.4) containing 0.03% H2O2) and dark reacted for 1 to 10 minutes at 25° C. 2 M H2SO4 was added at 50 μL/well to terminate the reaction. Reading was carried out with an adjustable wavelength microplate enzyme-labeled instrument SPECTRA MAX 190 at 490 nm wavelength.
as §2

Assay [2] deals with human epidermal carcinoma A431 cell line. The experiment in a line: SRB proliferation assay, A431 cells. Type of assay: cell-based. The note with it: A-431, SRB, 72 h, read-out: IC50 A431. On the procedure: as §3
Methods: sulforhodamine B (SRB) method, which was as follows: certain number of different tumor cells in logarithmic growth phase were inoculated on 96-well culture plates. After cultured for 24 h to cell adherence, different concentrations of the test compounds of the invention were added. Each concentration was provided with three wells, and a corresponding concentration of DMSO solvent control and a cell-free zeroing well were set. After the cells were treated with the medicine for 72 h, the culture medium was discarded and 100 μL of 10% pre-cooled trichloroacetic acid solution was added to fix the cells. After placed for 1 h at 4° C., it was washed for 5 times with distilled water and dried naturally. Then 100 μL SRB (4 mg/mL) (Sigma) solution was added and stained for 15 min at room temperature. The staining solution was discarded and washed for 5 times with 1% glacial acetic acid and dried. Finally, 150 μL of 10 mM Tris solution (pH 10.5) was added and the OD value was measured at 515 nm with adjustable wavelength microplate enzyme-labeled instrument (VERSAmax™, Molecular Device Corporation, Sunnyvale, Calif., USA).

The target in the next assay is T3, EGFR^wt (Homo sapiens, UniProt P00533).
T3 construct: purchased Millipore
T3 sequence (P00533 25-1210): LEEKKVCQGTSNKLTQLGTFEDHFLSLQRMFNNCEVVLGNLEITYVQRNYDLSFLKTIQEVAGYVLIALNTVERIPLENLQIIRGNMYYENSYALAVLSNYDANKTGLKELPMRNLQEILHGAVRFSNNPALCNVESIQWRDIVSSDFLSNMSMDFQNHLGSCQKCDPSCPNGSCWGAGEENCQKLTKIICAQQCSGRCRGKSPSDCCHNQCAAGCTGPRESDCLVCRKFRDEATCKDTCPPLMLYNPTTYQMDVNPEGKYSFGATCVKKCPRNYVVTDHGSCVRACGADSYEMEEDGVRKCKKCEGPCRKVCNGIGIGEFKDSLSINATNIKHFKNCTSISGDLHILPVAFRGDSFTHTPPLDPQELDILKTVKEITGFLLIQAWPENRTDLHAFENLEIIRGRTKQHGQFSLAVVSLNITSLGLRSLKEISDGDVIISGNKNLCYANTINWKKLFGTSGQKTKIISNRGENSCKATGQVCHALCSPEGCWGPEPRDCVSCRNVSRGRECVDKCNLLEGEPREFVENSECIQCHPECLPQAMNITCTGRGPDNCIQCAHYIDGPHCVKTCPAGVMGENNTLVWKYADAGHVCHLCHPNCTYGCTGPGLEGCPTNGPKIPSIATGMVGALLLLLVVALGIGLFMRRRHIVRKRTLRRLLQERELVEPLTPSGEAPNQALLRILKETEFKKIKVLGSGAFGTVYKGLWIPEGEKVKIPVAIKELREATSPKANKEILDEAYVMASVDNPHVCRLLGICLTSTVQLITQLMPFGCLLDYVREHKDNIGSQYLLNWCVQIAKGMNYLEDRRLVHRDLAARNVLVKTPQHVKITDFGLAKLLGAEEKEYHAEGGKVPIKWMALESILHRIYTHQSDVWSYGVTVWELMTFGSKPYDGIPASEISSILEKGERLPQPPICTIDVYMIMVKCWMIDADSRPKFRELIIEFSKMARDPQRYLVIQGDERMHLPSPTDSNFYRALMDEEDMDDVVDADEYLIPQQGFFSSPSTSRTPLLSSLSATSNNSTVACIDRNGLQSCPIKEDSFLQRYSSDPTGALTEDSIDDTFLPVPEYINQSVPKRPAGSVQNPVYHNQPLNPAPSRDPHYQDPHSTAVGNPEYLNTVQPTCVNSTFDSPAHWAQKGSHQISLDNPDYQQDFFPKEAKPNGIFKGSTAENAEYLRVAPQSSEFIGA
Description: kinase inhibitory activity test (ELISA), EGFR^WT. Format: biochemical. The note with it: ATP 5 μM, 1 hour at 37° C. On the procedure: as §1, §2

Bounds are passed on as bounds.

T1 sequence (P00533 25-1210 T790M/L858R): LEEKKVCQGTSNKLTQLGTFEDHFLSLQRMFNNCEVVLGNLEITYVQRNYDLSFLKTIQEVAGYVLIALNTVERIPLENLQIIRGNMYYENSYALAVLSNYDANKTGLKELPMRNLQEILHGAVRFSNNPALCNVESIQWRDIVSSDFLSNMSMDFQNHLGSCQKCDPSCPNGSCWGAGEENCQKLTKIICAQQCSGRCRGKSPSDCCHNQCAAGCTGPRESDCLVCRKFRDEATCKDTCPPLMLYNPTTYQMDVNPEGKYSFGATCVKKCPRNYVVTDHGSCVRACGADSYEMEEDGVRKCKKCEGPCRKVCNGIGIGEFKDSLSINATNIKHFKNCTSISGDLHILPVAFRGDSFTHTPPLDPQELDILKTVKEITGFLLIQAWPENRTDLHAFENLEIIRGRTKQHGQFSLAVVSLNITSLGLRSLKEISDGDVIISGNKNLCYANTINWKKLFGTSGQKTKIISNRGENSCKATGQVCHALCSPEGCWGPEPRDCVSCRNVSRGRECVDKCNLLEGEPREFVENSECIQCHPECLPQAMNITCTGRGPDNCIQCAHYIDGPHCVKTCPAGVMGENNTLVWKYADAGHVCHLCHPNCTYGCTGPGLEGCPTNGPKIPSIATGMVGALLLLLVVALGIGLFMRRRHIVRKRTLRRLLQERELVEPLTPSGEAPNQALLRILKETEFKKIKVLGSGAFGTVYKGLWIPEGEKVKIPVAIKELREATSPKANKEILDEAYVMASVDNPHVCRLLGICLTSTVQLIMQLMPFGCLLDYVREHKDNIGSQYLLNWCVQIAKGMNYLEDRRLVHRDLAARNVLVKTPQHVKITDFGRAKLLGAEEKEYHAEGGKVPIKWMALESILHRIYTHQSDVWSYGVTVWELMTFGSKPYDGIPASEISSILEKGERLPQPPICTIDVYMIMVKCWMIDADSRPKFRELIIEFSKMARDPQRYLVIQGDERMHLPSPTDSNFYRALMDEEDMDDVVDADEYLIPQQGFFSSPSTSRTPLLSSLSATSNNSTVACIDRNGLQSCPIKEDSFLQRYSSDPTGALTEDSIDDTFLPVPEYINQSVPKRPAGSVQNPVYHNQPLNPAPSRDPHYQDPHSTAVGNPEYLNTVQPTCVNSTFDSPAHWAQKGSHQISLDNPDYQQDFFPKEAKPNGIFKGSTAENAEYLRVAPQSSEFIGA
T2 sequence (P08069 31-1367): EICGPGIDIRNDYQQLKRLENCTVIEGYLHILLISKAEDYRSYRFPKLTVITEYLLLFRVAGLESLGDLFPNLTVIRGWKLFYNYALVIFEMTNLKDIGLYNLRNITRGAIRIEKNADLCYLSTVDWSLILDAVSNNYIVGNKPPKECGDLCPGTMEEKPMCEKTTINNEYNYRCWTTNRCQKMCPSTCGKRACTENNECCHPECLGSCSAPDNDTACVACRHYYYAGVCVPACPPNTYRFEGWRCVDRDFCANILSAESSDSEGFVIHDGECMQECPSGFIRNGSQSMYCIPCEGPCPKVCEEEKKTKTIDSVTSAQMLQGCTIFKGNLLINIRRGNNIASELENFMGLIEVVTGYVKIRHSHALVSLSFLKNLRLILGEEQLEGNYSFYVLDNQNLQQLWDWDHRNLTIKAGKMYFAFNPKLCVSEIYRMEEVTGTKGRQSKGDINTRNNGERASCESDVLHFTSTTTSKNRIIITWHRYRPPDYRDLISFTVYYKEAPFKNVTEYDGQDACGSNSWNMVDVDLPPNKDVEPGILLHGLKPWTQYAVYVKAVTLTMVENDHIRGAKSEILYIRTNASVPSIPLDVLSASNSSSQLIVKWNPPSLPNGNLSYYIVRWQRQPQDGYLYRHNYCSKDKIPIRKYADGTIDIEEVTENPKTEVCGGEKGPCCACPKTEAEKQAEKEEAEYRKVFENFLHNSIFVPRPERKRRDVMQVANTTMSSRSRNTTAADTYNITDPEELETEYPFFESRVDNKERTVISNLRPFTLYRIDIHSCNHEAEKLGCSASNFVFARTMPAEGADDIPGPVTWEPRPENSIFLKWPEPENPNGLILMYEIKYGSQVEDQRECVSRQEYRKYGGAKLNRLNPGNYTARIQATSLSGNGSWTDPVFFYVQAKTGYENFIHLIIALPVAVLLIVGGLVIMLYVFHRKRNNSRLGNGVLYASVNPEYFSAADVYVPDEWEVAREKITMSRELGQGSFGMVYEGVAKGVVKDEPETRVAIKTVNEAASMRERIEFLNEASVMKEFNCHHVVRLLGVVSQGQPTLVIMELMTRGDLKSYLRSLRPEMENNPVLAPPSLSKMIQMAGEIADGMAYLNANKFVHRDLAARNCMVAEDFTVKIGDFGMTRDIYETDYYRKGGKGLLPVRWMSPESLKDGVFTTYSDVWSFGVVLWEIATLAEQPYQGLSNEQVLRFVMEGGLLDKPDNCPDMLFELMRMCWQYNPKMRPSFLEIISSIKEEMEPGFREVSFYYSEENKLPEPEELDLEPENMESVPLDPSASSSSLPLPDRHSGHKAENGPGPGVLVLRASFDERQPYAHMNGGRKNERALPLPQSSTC

`COc1ccc(NC(=O)/C=C/CN(C)C)cc1Nc1ncc(Cl)c(Nc2cnc3ccccc3c2)n1` [CCB145221, (E)-N-((3-((5-chloro-4-((quinolin-3-yl)amino))pyrimidin-2-yl)amino)-4-methoxyphenyl)-4-(dimethylamino)-2-butenamide]: the IC50 was 37.6 nM against EGFR^T790M/L858R; 170 nM in assay [1]; 12.5 nM against IGF-1R; 646 nM in assay [2]; 848 nM on EGFR^wt.

Take `COc1ccc(NC(=O)/C=C/CN(C)C)cc1Nc1ncc(Cl)c(Nc2ccc3[nH]ccc3c2)n1` [CCB145231, (E)-N-((3-((5-chloro-4-((indol-5-yl)amino))pyrimidin-2-yl)amino)-4-methoxyphenyl)-4-(dimethylamino)-2-butenamide]: the IC50 against EGFR^T790M/L858R was 30.8 nM; in assay [1], 289 nM; at IGF-1R it was 38 nM; in assay [2], 615 nM; on EGFR^wt, 295 nM.

As to `COc1ccc(NC(=O)/C=C/CN(C)C)cc1Nc1nccc(Nc2ccc3ccccc3c2)n1` [CCB145242, (E)-N-((3-(4-((naphthalen-2-yl)amino)pyrimidin-2-yl)amino)-4-methoxyphenyl)-4-(dimethylamino)-2-butenamide], the IC50 was 56.6 nM at EGFR^T790M/L858R; 885 nM in assay [1]; 98.5 nM against IGF-1R; 1040 nM in assay [2]; 54.1 nM against EGFR^wt.

With `COc1ccc(NC(=O)/C=C/CN(C)C)cc1Nc1ncc(Cl)c(Oc2ccc3ccccc3c2)n1` [CCB145260, (E)-N-((3-((5-chloro-4-((naphthalen-2-yl)oxy))pyrimidin-2-yl)amino)-4-methoxyphenyl)-4-(dimethylamino)-2-butenamide], the IC50 on EGFR^T790M/L858R is 293 nM; in assay [1], 2040 nM; against IGF-1R, 297 nM; in assay [2], 17800 nM; at EGFR^wt, > 10000 nM.

`COc1ccc(NC(=O)/C=C/CN(C)C)cc1Nc1ncc(OC)c(Nc2ccc3ccccc3c2)n1` [CCB145268, (E)-N-((3-((5-methoxy-4-((naphthalen-2-yl)amino))pyrimidin-2-yl)amino)-4-methoxyphenyl)-4-(dimethylamino)-2-butenamide]: the IC50 was 102 nM against EGFR^T790M/L858R; 1160 nM in assay [1]; 182 nM against IGF-1R; 1110 nM in assay [2]; 225 nM on EGFR^wt.

For `COc1ccc(NC(=O)/C=C/CN(C)C)cc1Nc1ncc(C(F)(F)F)c(Nc2ccc3ccccc3c2)n1` [CCB145274, (E)-N-((3-((5-trifluoromethyl-4-((naphthalen-2-yl)amino))pyrimidin-2-yl)amino)-4-methoxyphenyl)-4-(dimethylamino)-2-butenamide], the IC50 at EGFR^T790M/L858R came to 31.3 nM; in assay [1] it was 682 nM; against IGF-1R it was 41 nM; in assay [2], 1220 nM; against EGFR^wt, 2070 nM.

On to `COc1ccc(NC(=O)/C=C/CN(C)C)cc1Nc1ncc(C(C)C)c(Nc2ccc3ccccc3c2)n1` [CCB145283, (E)-N-((3-((5-isopropyl-4-((naphthalen-2-yl)amino))pyrimidin-2-yl)amino)-4-methoxyphenyl)-4-(dimethylamino)-2-butenamide], for which the IC50 on EGFR^T790M/L858R worked out at 151 nM; in assay [1] it was 860 nM; against IGF-1R, 85.2 nM; in assay [2], 1040 nM; against EGFR^wt, 2290 nM.

For the compound `COc1ccc(NC(=O)/C=C/CN(C)C)cc1Nc1ncc(Br)c(Nc2ccc3ccccc3c2)n1` [CCB145286, (E)-N-((3-((5-bromo-4-((naphthalen-2-yl)amino))pyrimidin-2-yl)amino)-4-methoxyphenyl)-4-(dimethylamino)-2-butenamide], the IC50 against EGFR^T790M/L858R amounted to 22.5 nM; in assay [1], 416 nM; at IGF-1R it was 20.5 nM; in assay [2], 1120 nM; against EGFR^wt, 254 nM.

With `COc1ccc(NC(=O)/C=C/CN(C)C)cc1Nc1ncc(F)c(Nc2ccc3ccccc3c2)n1` [CCB145287, (E)-N-((3-((5-fluoro-4-((naphthalen-2-yl)amino))pyrimidin-2-yl)amino)-4-methoxyphenyl)-4-(dimethylamino)-2-butenamide], the IC50 on EGFR^T790M/L858R is 32 nM; in assay [1] it was 375 nM; against IGF-1R, 151 nM; in assay [2] it was 611 nM; at EGFR^wt, 131 nM.

For `COc1ccc(NC(=O)/C=C/CN(C)C)cc1Nc1ncc(C)c(Nc2ccc3ccccc3c2)n1` [CCB145289, (E)-N-((3-((5-methyl-4-((naphthalen-2-yl)amino))pyrimidin-2-yl)amino)-4-methoxyphenyl)-4-(dimethylamino)-2-butenamide], the IC50 came to 72.9 nM against EGFR^T790M/L858R; 1000 nM in assay [1]; 103 nM at IGF-1R; 839 nM in assay [2]; 232 nM at EGFR^wt.

On to `COc1ccc(NC(=O)/C=C/CN(C)C)cc1Nc1ncc(Cl)c(Sc2ccc3ccccc3c2)n1` [CCB145291, (E)-N-((3-((5-chloro-4-((naphthalen-2-yl)sulfenyl))pyrimidin-2-yl)amino)-4-methoxyphenyl)-4-(dimethylamino)-2-butenamide], for which the IC50 on EGFR^T790M/L858R was 159 nM; in assay [1] it was 2780 nM; at IGF-1R, 347 nM; in assay [2], 11100 nM; at EGFR^wt, ≥ 10000 nM.

As usually defined, the IC50 is the concentration needed to halve the response being measured.

The values above are taken from patent publication US10059694B2, “2-aminopyrimidine compound and pharmaceutical composition and use thereof” (Shanghai Institute of Materia Medica, Chinese Academy of …, priority 2014, dated 2018).
